Measurements from patent US7741436B2, “Biologically active peptides and their use for repairing injured nerves” (priority 2001, dated 2010).

Experiments:
Format in all cases: cell-based
[1] = test system: rat cerebellar granule neurons; test: Electrophysiology: voltage-clamped whole-cell patch recordings of currents induced by laminin-1-derived peptides and fusion proteins; settings: whole-cell patch clamp, neurons on laminin-1 substratum
Source text: Sixteen-day pregnant Sprague-Dawley female rats were obtained from Taconic Farms, and maintained at the animal facility of National Institute of Alcohol Abuse and Alcoholism (NTH), fed with NTH-31 diet, containing 20,000 IU/kg vitamin A after autoclaving. The rats were allowed to give birth, and cerebellar tissues of 3-day-old female pups were aseptically isolated as described previously (Matsuzawa et al., 1996a). A suspension of single cells was obtained by trypsinizing the cerebella as described elsewhere (Liesi and Wright, 1996), after which 10^5 cells were plated on 22 mm glass coverslip pre-coated with laminin-1. The cells were incubated in an atmosphere of 95% air/5% CO2 at +37° C. in RPMI 1640 culture medium supplemented with penicillin and streptomycin and 200 μM L-glutamine. After 24 hrs, the cells were used for electrophysiology.
Recordings were done at room temperature using a List EPC-7 patch-clamp amplifier in voltage-clamped whole-cell patch configuration as described previously (Liesi and Wright, 1996). Pipettes were pulled from borosilicate glass and lightly fire polished. Experiments were performed at room temperature. Whole-cell currents were recorded on a Gould 2400S strip chart recorder. Cell membrane potential was clamped at −40 mV unless otherwise noted. All bath solutions were applied through pinch-valves that controlled the flow from multiple reservoirs to a single 200 μm ID barrel of fused silica. Standard bath solution was RPMI 1640, buffered with 10 mM HEPES (pH 7.4). The standard pipette solution contained (in mM): CsMeSO4 100, CsCl 15, BAPTA 5, HEPES 10 (pH KOH-adjusted to 7.2). Tests for reversal potentials were conducted in low K^+ bath solution containing (in mM): NaCl 150, KCl 5, CaCl2 1, HEPES 10 (pH adjusted to 7.2 with NaOH) and a high K^+ bath solution, containing (in mM): NaCl 115, KCl 40, CaCl2 1, HEPES 10 (pH adjusted to 7.2 with NaOH). All bath solutions contained 300 nM TTX. […] Nernst reversal potentials were calculated according to Hille (1992). […]

[2] = test system: human embryonic neocortical neurons; test: Survival of human embryonic neocortical neurons on injured glial cells of the human spinal cord; settings: 72 hrs
Source text: The CNS tissues were first placed in cold saline. The spinal cord tissues were identified under a stereomicroscope, and carefully freed of meninges. To obtain monolayer cultures of human spinal cord glial cells, the cells were dissociated by mechanical trituration using a Pasteur-pipette, and placed in Petri dishes (Corning, N.Y., USA) containing 10% fetal calf serum (Hyclone, Logan, UH) in DMEM-F12 (Gibco, U.K.) supplemented with penicillin and streptomycin as described (Liesi et al. 2001).
Human embryonic spinal cord glial cells were cultured till confluency in 10% fetal bovine serum as described (Liesi et al., 2001). The confluent cultures were trypsinized and cells replated at 100 000 cells/22 mm glass coverslip, and grown till confluency. The confluent cultures were changed into normal adult human serum, and injured by using a 18 G gauge sterile needle. The KDI peptide was added at 1 μg/ml (3 μM) and at 10 μg/ml (30 μM) concentration and the P1543 peptide (p20) was added at a concentration of 1 μM, and 50-100 000 freshly isolated human embryonic neocortical neurons were added on the glial cells. The control cultures had neurons added either without the peptide or the lesion. The cells were cultured for 72 hrs in 5% CO2/95% air at +37° C., and fixed for quantitation of neurons and measurement of their neuritic lengths. The neurons on glial monolayers were visualized by immunostaining using mouse monoclonal antibodies against a neuron-specific tubulin isoform (TUJ1). The results were evaluated by counting neurons in six random fields on 3 different coverslip per experiment. In this way, more than 300 neurons were counted per experiment. Statistical analysis of the results was performed using one-way analysis of Varians (ANOVA) and Student-Newman-Keuls multiple comparisons test on the Instat (v2.03) program (GraphPad, San Diego, Calif.).

[3] = test system: human CNS neurons; test: Attachment and neurite outgrowth of human embryonic CNS neurons on synthetic peptides coupled to glass; settings: 0.1-10 μg/ml, peptide covalently cross-linked to glass, 24 hrs
Method: The cells were dissociated by trituration in a sterile culture medium (RPMI 1640) containing penicillin (100 U/ml), streptomycin (100 μg/ml) and 200 μM L-glutamine. The dissociated cells were plated on glass coverslips pre-coated (Liesi et al., 1989) with mouse laminin-1 (Boehringer-Mannheim, Germany) or with the peptides KDI-gc and RDIAEIIKDI-gc (SEQ ID NO: 1), as described elsewhere (Matsuzawa et al., 1996b). The peptides were from the Multiple Peptide Systems (La Jolla, Calif.). The cultures were maintained for 24 hrs, fixed in 2% paraformaldehyde, and processed for immunocytochemistry.
Immunocytochemistry for neuron specific tubulin isoform TUJ1 was performed as described elsewhere (Liesi et al., 2001). In short, the cells were permeabilized in methanol for 5 min at −20° C., washed in PBS and incubated with monoclonal TUJ1-antibodies for 1 hr at room temperature. The antibody was of high specificity and was used at 1:500 dilution. After immunocytochemistry, the coverslips were mounted in PBS:glycerol (1:1) and viewed with Olympus Provis fluorescence microscope with appropriate filter combinations.

KDI
induction of currents in cerebellar granule neurons [1]: induced currents | attachment and neurite outgrowth of neocortical neurons on lesioned spinal cord glial cells ([2]; 1 μg/ml soluble peptide, vs lesion control): significantly (p<0.001) improved | improvement of attachment and neurite outgrowth of neocortical neurons compared to that induced by p20 (1 μg/ml) ([2]; 1 μg/ml): statistically significant | neuronal survival (attachment and neurite outgrowth) of neocortical neurons on lesioned spinal cord glial cells ([2]; 10 μg/ml soluble peptide, vs unlesioned and lesioned controls): no statistical difference of neuronal survival | attachment and neurite outgrowth of human CNS neurons [3]: supported attachment and neurite outgrowth
